Measurements published in ChEMBL document CHEMBL1201862, “PubChem BioAssay data set” (2004).
Calls of active or inactive are those of the source.

Tests used:
[1] = target: T1, Alkaline phosphatase, tissue-nonspecific isozyme (Homo sapiens, UniProt P05186); test: human TNAP enzyme inhibitors, SAR follow-up, biochemical, luminescent, dose response (AID 1056)
T1 sequence (P05186 whole entry): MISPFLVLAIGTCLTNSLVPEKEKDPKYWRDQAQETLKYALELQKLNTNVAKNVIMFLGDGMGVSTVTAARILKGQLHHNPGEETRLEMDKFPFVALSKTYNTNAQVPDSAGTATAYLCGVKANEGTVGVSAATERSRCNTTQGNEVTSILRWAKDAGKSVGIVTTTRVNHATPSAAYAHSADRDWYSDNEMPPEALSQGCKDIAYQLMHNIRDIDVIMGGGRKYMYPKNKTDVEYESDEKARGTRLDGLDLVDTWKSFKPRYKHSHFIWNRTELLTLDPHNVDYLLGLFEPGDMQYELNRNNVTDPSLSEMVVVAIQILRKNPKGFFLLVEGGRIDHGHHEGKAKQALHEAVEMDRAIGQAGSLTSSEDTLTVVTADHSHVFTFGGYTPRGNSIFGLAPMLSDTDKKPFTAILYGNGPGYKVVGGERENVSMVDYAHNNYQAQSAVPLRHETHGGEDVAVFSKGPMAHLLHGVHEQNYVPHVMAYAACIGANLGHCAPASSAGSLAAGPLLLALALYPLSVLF

[2] = target: Alkaline phosphatase, placental type (Homo sapiens, UniProt P05187); test: PLAP enzyme inhibitors, confirmation, biochemical, luminescence (AID 1512); type: functional
[3] = target: G-protein coupled receptor 35 (Homo sapiens, UniProt Q9HC97); test: GPR35 antagonists blocking zaprinast-driven arrestin recruitment, primary screen, imaging, U2OS, beta-arrestin-GFP, zaprinast agonist (AID 2058); type: functional;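 further: antagonist potency meaning inhibition of agonist-induced arrestin redistribution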
[4] = cytotoxicity toward NIH3T3 fibroblasts, dose response, counter-screen, cell-based, ATP luminescence, mouse fibroblasts (AID 2010); type: functional;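 further: cells exposed to compound for about 90 hours before reading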
[5] = inhibitors of intracellular T. cruzi replication, confirmation, NIH3T3 host cells, beta-gal luminescence (AID 2044); type: functional, cell-based;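 further: intracellular parasites grown in NIH/3T3 mouse fibroblasts as host cells; luminescent beta-galactosidase reporter signal from transgenic T. cruzi replicating inside host cells; inhibitors lower the luminescence signal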
[6] = target: T2, Voltage-dependent T-type calcium channel subunit alpha-1H (Homo sapiens, UniProt O95180); type: functional
[7] = target: T2, Voltage-dependent T-type calcium channel subunit alpha-1H; test: Inhibitors of T-Type Calcium Channels. [Related pubchem assays (depositor defined):AID449739, AID463087, AID489005, AID493041, AID504579, AID504584, AID504619, AID504628]; type: functional
[8] = target: T3, RNA-binding protein pos-1 (Caenorhabditis elegans, UniProt G5EF15); test: inhibitors of POS-1/mex-3 RNA binding, dose response, biochemical, fluorescence polarization (AID 1964);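 further: purified POS-1 fused to maltose binding protein made in E. coli; potency of compounds blocking POS-1 binding to fluorescent RNA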
T3 sequence (G5EF15 whole entry): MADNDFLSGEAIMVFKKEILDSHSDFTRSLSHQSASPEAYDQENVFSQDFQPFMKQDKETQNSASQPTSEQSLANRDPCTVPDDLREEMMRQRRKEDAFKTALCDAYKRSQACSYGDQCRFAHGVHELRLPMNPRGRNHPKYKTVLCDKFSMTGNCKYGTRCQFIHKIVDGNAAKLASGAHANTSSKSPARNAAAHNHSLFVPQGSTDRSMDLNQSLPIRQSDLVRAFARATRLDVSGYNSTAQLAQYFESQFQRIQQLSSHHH

[9] = target: T4, Zinc finger protein mex-5 (Caenorhabditis elegans, UniProt Q9XUB2); test: MEX-5/TCR-2 RNA interaction inhibitors, dose response, biochemical, C. elegans, fluorescence polarization (AID 1960)
T4 sequence (Q9XUB2 whole entry): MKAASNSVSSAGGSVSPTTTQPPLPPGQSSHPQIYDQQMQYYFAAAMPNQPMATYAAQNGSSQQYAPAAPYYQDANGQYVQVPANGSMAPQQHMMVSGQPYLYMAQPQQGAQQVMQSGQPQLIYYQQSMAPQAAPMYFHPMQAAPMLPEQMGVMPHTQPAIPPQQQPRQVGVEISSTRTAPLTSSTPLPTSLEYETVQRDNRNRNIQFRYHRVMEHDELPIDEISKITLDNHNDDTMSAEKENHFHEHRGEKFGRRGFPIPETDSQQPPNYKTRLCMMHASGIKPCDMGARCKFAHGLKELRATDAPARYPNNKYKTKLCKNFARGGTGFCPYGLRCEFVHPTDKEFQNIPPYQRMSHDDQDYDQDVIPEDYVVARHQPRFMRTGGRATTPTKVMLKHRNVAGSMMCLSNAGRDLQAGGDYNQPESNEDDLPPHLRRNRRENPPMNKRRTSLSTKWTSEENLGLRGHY

[10] = target: T5, Voltage-gated N-type calcium channel alpha-1B subunit/Amyloid beta A4 precursor protein-binding family A member 1 (Homo sapiens, UniProt Q00975+Q02410); type: protein assay
[11] = target: T5, Voltage-gated N-type calcium channel alpha-1B subunit/Amyloid beta A4 precursor protein-binding family A member 1; type: protein assay; remark: listed apart in the source

T2 sequence (O95180 whole entry): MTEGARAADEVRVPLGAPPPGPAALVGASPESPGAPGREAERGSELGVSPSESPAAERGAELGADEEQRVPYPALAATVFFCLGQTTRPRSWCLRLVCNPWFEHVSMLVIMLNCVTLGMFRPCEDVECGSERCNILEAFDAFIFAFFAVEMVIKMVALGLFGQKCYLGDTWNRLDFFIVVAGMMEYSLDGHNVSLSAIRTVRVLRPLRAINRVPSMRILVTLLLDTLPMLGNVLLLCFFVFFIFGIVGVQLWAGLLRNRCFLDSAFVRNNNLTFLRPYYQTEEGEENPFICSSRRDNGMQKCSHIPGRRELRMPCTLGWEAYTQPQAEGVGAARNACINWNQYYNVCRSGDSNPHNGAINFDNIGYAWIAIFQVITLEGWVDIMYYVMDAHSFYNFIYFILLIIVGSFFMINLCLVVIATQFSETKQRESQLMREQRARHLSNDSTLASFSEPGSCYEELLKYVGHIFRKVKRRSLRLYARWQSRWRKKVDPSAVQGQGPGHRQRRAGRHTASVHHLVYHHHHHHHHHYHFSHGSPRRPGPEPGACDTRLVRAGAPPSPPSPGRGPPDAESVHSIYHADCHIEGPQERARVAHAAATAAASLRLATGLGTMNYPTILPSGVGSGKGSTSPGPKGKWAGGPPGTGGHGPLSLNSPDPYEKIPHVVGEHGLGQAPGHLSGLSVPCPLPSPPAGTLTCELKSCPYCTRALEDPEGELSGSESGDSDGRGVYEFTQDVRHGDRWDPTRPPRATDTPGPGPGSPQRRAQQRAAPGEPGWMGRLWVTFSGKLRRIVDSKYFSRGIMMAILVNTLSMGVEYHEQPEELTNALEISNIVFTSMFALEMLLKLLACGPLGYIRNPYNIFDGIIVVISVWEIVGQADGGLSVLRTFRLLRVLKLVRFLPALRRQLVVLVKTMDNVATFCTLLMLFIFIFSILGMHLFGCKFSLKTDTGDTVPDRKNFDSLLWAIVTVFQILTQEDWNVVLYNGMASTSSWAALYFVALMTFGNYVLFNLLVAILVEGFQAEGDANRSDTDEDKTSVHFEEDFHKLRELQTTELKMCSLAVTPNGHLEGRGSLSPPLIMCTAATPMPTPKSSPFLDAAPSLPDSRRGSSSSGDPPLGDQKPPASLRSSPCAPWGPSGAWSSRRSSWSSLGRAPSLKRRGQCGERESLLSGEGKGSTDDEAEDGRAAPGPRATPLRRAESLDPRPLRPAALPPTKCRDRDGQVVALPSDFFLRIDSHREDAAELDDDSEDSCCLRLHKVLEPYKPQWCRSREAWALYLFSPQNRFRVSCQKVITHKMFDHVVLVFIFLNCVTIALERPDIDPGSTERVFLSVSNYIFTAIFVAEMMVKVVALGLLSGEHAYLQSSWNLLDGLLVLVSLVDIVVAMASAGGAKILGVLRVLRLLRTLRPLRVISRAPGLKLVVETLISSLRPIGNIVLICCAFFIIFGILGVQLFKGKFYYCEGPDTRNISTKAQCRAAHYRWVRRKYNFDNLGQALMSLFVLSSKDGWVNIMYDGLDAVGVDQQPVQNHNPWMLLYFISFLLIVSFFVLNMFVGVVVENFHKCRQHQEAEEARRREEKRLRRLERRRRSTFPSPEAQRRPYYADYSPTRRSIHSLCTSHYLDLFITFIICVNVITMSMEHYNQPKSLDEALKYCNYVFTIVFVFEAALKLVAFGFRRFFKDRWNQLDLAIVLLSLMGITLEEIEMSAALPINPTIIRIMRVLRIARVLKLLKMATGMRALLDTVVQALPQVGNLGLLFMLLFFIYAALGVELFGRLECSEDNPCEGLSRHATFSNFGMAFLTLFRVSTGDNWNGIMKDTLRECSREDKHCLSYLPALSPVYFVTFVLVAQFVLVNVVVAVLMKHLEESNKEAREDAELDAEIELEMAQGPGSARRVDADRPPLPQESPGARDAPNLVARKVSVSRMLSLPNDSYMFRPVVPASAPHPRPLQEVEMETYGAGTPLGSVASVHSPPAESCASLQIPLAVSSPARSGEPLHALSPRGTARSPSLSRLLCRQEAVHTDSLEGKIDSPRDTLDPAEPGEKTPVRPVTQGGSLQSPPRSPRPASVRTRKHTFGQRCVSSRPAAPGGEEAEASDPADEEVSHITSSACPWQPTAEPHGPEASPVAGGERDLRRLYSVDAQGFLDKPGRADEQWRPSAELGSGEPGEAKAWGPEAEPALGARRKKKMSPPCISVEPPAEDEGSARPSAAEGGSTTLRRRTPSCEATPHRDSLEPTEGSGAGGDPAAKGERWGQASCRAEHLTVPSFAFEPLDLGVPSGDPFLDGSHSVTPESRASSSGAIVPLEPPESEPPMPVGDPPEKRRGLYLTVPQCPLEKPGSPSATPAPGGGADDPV
Sequence of G-protein coupled receptor 35 (Q9HC97 whole entry): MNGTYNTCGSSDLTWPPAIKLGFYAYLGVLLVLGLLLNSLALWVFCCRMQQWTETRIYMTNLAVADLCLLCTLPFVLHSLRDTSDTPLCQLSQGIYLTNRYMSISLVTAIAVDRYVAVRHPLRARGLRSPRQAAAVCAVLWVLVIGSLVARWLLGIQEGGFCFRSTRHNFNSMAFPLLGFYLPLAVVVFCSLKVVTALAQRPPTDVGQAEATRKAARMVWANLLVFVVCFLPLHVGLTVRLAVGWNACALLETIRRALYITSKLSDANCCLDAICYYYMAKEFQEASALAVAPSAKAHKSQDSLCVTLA
Sequence of Alkaline phosphatase, placental type (P05187 whole entry): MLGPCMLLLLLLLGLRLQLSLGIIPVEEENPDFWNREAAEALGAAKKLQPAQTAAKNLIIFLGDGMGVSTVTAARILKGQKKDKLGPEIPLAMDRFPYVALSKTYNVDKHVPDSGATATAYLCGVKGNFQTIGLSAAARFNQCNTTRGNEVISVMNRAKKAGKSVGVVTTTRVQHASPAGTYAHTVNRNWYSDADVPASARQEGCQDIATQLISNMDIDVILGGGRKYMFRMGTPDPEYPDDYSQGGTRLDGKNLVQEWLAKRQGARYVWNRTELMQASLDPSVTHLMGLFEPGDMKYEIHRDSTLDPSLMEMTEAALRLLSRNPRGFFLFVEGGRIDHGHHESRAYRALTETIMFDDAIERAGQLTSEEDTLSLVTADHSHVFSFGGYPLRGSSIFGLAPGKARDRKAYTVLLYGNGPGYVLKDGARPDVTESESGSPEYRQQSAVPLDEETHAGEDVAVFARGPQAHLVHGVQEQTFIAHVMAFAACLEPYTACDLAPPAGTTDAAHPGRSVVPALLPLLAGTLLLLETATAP

With Cc1cc(C)c(C#N)c(SCC(=O)c2ccc3c(c2)OCO3)n1 the IC50 [1] was > 100 µM (inactive) and the IC50 [2] was > 100 µM (inactive).
In the case of CCN(CC)c1ccc(/C=C(/C#N)c2nc3cc(C)ccc3[nH]2)c(OC(C)C)c1, the IC50 [3] is reported as 0.557 µM (active), the EC50 [4] is reported as > 60 µM (not active) and the EC50 [5] is reported as 0.823 µM (active). For the same molecule, the EC50 [6] was 1.62 µM (active).
For Cc1ccc(N2C(=O)c3cccc4c(N5CCN(C)CC5)ccc(c34)C2=O)c2cccnc12, the EC50 [7] was 4.61 µM (active), the EC50 [8] was 7.8 µM (active) and the EC50 [6] was 0.658 µM (active). The EC50 [9] was 7.84 µM (active).
For N#CC1=C([S-])NC(=O)[C@H]([n+]2ccccc2)[C@H]1c1ccc(Cl)cc1, the IC50 [10] was > 50 µM (inactive) and the IC50 [11] was > 56.8 µM (not active).
